# Data published in US20100168102A9, “Amide Derivatives as Kinase Inhibitors” (Devgen NV, priority 2005, published 2010).
# Read-outs that look alike come from different tables or passages of the source.
# Columns and labels:
# PKC epsilon = biological target: T1, PKC epsilon (Homo sapiens, UniProt Q02156); test: Biochemical assay for PKC epsilon (fluorescence polarization, Protein Kinase C Assay Kit, Red); details: read-out: IC50 μM PKCε
# T1 construct: purchased Invitrogen P2282
# T1 sequence (Q02156 1-737): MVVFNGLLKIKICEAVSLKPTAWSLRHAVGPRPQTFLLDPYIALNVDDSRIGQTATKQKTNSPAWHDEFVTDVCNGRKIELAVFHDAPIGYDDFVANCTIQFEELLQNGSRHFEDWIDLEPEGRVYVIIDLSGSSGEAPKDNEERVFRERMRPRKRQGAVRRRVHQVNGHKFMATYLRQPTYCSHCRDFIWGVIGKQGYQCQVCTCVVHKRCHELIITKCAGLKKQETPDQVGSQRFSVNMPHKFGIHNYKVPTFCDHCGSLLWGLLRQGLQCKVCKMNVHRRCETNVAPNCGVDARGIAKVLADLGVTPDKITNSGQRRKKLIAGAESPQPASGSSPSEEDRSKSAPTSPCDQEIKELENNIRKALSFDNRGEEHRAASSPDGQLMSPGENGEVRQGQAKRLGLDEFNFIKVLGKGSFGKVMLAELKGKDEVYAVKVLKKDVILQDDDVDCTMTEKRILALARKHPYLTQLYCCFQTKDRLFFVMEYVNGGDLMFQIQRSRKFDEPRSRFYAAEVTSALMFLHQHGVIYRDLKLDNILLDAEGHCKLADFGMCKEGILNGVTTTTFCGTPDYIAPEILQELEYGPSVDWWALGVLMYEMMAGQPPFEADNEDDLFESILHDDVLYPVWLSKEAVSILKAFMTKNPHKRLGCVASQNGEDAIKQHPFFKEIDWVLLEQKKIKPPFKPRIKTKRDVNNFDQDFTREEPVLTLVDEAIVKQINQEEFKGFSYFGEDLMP
# Procedure: The compounds were tested for inhibition of PKC epsilon.
# The inhibition assays were performed with a fluorescence polarization (FP) assay using the commercially available Protein Kinase C Assay Kit, Red, from Invitrogen (Product ID. No. P2941), essentially in accordance with the protocol supplied by the manufacturer. […] The isozyme PKC epsilon was also obtained from Invitrogen (Product ID No. P2282).
# Staurosporine was used as a positive control (2 μM).
# To perform the assay, 2 μl of a solution of the compound to be tested in DMSO (at each concentration) was added to 6 μl of a solution of the enzyme in 10 mM HEPES, 5 mM dithiotreitol, 0.1% Triton X-100, pH 7.4. The final concentration of the enzymes was 10 ng/ml.
# After incubating for 30 minutes at room temperature, 4 μl of a mixture of ATP and the protein substrate in 60 mM HEPES (pH7.4), 15 mM MgCl2, 0.3 mM CaCl2, 0.06% NP40 was added.
# After incubating for 80 minutes at room temperature, 3 μl of a mix solution of 500 mM EDTA (stop solution) and the Rhodamine-based PKC Red Tracer (from the Protein Kinase C Assay Kit) in BGG/phosphate buffer (pH7.4) with 0.02% NaN3 and 0.1% Triton X-100 was added and 5 μl of a the Anti-Phosphoserine antibody (also from the Protein Kinase C Assay Kit) in BGG/phosphate buffer (pH7.4) with 0.02% NaN3.
# The results were fitted to a curve using the XL-Fit algorithm and […] were calculated for each fitted curve, again using the XL-Fit algorithm.
# human ROCKα/ROCKII mix = biological target: T2, human ROCKα/ROCKII mix (Homo sapiens, UniProt O75116); test: Biochemical assay for ROCK (fluorescence polarization, ROCK IMAP Kit)
# T2 construct: purchased Upstate Biotechnology 14-451
# Procedure: The compounds were tested for inhibition of human ROCKα/ROCKII mix.
# The inhibition assays were performed with a fluorescence polarization (FP) assay using the commercially available ROCK IMAP Kit from Molecular Devices (Product ID. No. R8093), essentially in accordance with the protocol supplied by the manufacturer. […] The enzyme mix ROCKα/ROCKII was obtained from Upstate Biotechnology (Product ID No 14-451).
# In summary, the compound was screened in the wells of a 384 well plate for enzymatic inhibition with concentrations varying from 100 μM to 0.3 nM using a stepwise 3 (or 2)-fold dilution.
# To perform the assay, 1 μl of a solution of the compound to be tested in DMSO (at each concentration) was added to 2 μl of a solution of the enzyme in 10 mM Tris-HCl , 10 mM MgCl2, 0.1% BSA, 0.05% NaN3, pH 7.2. The final concentration of the enzyme was 2.6 nM.
# After incubating for 30 minutes at room temperature, 2 μl of a mixture of ATP and the protein substrate in 10 mM Tris-HCl, 10 mM MgCl2, 0.1% BSA, 0.05% NaN3, pH 7.2 was added. The final concentration of the ATP was 10 μM and final concentration of protein substrate was 0.2 μM.
# After incubating for 60 minutes at room temperature, 12 μl of the IMAP Binding Solution (mix of the IMAP Binding Buffer A (1×) and the IMAP Binding Reagent (from the ROCK IMAP kit)) was added.
# The mixture thus obtained (total volume: 17 μl) was incubated for 60 minutes at room temperature, upon which the fluorescence polarization was measured using an automated plate reader (Perkin Elmer, Model Envision 2100-0010 HTS) with FP filters: excitation filter FITC FP 480 and emission filters FITC FP P-pol 535 and FITC FP S-pol 535 (Perkin-Elmer). The results were fitted to a curve using the XL-Fit algorithm and IC50 values were calculated for each fitted curve, again using the XL-Fit algorithm.
# [1] = compounds of Formula XIV, Table 3
# [2] = Table 2, compounds of Formula XIII
# T2 sequence (O75116 11-552 limits assumed): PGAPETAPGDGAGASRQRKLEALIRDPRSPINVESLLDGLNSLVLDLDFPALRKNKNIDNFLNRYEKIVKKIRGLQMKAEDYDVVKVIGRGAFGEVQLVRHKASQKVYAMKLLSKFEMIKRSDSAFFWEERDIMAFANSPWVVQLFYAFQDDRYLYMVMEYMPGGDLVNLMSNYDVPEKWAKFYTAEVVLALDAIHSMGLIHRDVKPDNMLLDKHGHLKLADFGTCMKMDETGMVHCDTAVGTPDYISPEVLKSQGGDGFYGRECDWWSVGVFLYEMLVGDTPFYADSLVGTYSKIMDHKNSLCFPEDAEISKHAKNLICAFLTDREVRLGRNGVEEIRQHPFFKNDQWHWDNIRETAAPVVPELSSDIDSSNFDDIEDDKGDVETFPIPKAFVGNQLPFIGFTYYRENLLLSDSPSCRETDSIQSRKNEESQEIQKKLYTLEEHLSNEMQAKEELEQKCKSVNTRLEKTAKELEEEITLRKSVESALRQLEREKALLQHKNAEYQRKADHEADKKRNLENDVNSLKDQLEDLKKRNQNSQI
Substance,IC50 (PKC epsilon),IC50 (human ROCKα/ROCKII mix),IC50 (PKC epsilon; [1]),IC50 (human ROCKα/ROCKII mix; [1]),also measured
4-(1-Amino-2-{[2-(4-bromo- phenyl)-acetyl]-methyl- amino}-ethyl)- N-pyridin-4-yl-benzamide [Compound 457],5 to 50 µM,0.5 to 5 µM,–,–,–
4-(1-Amino-2-{[2-(4-chloro- phenyl)-3-methyl-butyryl]- methyl- amino}-ethyl)- N-pyridin-4-yl-benzamide [Compound 461],5 to 50 µM,0.5 to 5 µM,–,–,–
4-(1-Amino-2-{[2-(4-chloro- phenyl)-acetyl]-methyl- amino}-ethyl)- N-pyridin-4-yl-benzamide [Compound 460],5 to 50 µM,0.5 to 5 µM,–,–,–
4-(1-Amino-2-{[2-(4-fluoro- phenyl)-acetyl]-methyl- amino}-ethyl)- N-pyridin-4-yl-benzamide [Compound 471],5 to 50 µM,0.5 to 5 µM,–,–,–
4-(1-Amino-2-{[2-(5-bromo- pyridin-3-yl)-acetyl]-methyl- amino}-ethyl)- N-pyridin-4-yl-benzamide [Compound 442],5 to 50 µM,0.5 to 5 µM,–,–,–
4-(1-Amino-2-{methyl-[2-(2- phenyl-thiazol-4-yl)-acetyl]- amino}-ethyl)- N-pyridin-4-yl-benzamide [Compound 445],5 to 50 µM,0.5 to 5 µM,–,–,–
4-(1-amino-2- cyclohexylcarbamoyl-ethyl)- N-pyridin-4-yl-benzamide [Compound 172],–,–,0.5 to 5 µM,0.05 to 0.5 µM,–
4-(1-amino-2-benzoylamino-ethyl)- N-pyridin-4-yl-benzamide [Compound 69],–,–,–,–,IC50 (PKC epsilon; [2]): 0.5 to 5 µM; IC50 (human ROCKα/ROCKII mix; [2]): 0.05 to 0.5 µM
"4-[1-Amino-2- (benzo[1,3]dioxol-5-yl- ethylcarbamoyl)-ethyl]-N- pyridin-4-yl-benzamide [Compound 296]",–,–,5 to 50 µM,0.05 to 0.5 µM,–
4-[1-Amino-2-(1-(R)-p-tolyl- propylcarbamoyl)-ethyl]-N- pyridin-4-yl-benzamide [Compound 220],–,–,0.5 to 5 µM,0.05 to 0.5 µM,–
4-[1-Amino-2-(1-(S)-p-tolyl- propylcarbamoyl)-ethyl]-N- pyridin-4-yl-benzamide [Compound 219],–,–,0.5 to 5 µM,0.05 to 0.5 µM,–
"4-[1-Amino-2-(2,4- dimethoxy- benzylcarbamoyl)-ethyl]- N-pyridin-4-yl-benzamide [Compound 241]",–,–,0.5 to 5 µM,0.05 to 0.5 µM,–
4-[1-Amino-2-(2-ethoxy- benzylcarbamoyl)-ethyl]- N-pyridin-4-yl-benzamide [Compound 237],–,–,0.5 to 5 µM,0.05 to 0.5 µM,–
4-[1-Amino-2-(2-methoxy- benzylcarbamoyl)-ethyl]- N-pyridin-4-yl-benzamide [Compound 236],–,–,0.5 to 5 µM,0.05 to 0.5 µM,–
"4-[1-Amino-2-(3,4-dichloro- 6-methyl-benzylcarbamoyl)- ethyl}-N-pyridin-4-yl- benzamide [Compound 254]",–,–,0.5 to 5 µM,0.05 to 0.5 µM,–
4-[1-Amino-2-(4-thiophen-2- yl-benzylcarbamoyl)-ethyl]- N-pyridin-4-yl-benzamide [Compound 235],–,–,5 to 50 µM,0.05 to 0.5 µM,–

Substance,IC50 (PKC epsilon),IC50 (human ROCKα/ROCKII mix),IC50 (PKC epsilon; [1]),IC50 (human ROCKα/ROCKII mix; [1]),also measured
4-[1-Amino-2-(benzyl- phenethyl-carbamoyl)-ethyl]- N-pyridin-4-yl-benzamide [Compound 226],–,–,0.5 to 5 µM,0.05 to 0.5 µM,–
4-[1-Amino-2-(methyl- phenylacetyl-amino)-ethyl]- N-pyridin-4-yl-benzamide [Compound 420],5 to 50 µM,0.5 to 5 µM,–,–,–
4-[1-Amino-2-(phenethyl- phenyl-carbamoyl)-ethyl]-N- pyridin-4-yl-benzamide [Compound 286],–,–,0.5 to 5 µM,0.05 to 0.5 µM,–
4-[1-amino-2-(2-morpholin- 4-yl-ethylcarbamoyl)-ethyl]- N-pyridin-4-yl-benzamide [Compound 177],–,–,5 to 50 µM,0.05 to 0.5 µM,–
4-[1-amino-2-(2-pyrazol-1-yl- ethylcarbamoyl)-ethyl]-N- pyridin-4-yl-benzamide [Compound 312],–,–,0.5 to 5 µM,0.05 to 0.5 µM,–
4-[1-amino-2-(4-methyl- cyclohexylcarbamoyl)-ethyl]- N-pyridin-4-yl-benzamide [Compound 173],–,–,0.5 to 5 µM,0.05 to 0.5 µM,–
4-[1-amino-2-(N′-butyl- hydrazinocarbonyl)-ethyl]-N- pyridin-4-yl-benzamide [Compound 324],–,–,0.5 to 5 µM,0.05 to 0.5 µM,–
4-[1-amino-2-(cyclopropyl- methylcarbamoyl)-ethyl]-N- pyridin-4-yl-benzamide [Compound 171],–,–,0.5 to 5 µM,0.05 to 0.5 µM,–
"4-{1-Amino-2- [(benzo[1,3]dioxol-5- ylmethyl)-carbamoyl]-ethyl}- N-pyridin-4-yl-benzamide [Compound 245]",–,–,0.5 to 5 µM,0.05 to 0.5 µM,–
4-{1-Amino-2-[2-(9H-fluoren- 2-yl)-ethylcarbamoyl]-ethyl}- N-pyridin-4-yl-benzamide [Compound 318],–,–,5 to 50 µM,0.05 to 0.5 µM,–
4-{1-Amino-2-[(2-1H-indol-3- yl-acetyl)-methyl- amino]-ethyl}- N-pyridin-4-yl-benzamide [Compound 443],5 to 50 µM,0.5 to 5 µM,–,–,–
"4-{1-Amino-2-[(2- benzo[1,3]dioxol-5-yl- acetyl)-methyl-amino]-ethyl}- N-pyridin-4-yl-benzamide [Compound 432]",5 to 50 µM,0.5 to 5 µM,–,–,–
4-{1-Amino-2-[(2- benzo[b]thiophen-3-yl- acetyl)-methyl- amino]-ethyl}- N-pyridin-4-yl-benzamide [Compound 444],5 to 50 µM,0.5 to 5 µM,–,–,–
4-{1-Amino-2-[(2- cyclopentyl-2-phenyl- acetyl)-methyl- amino]-ethyl}- N-pyridin-4-yl-benzamide [Compound 455],5 to 50 µM,5 to 50 µM,–,–,–
4-{1-Amino-2-[(2-biphenyl-4- yl-acetyl)-methyl- amino]-ethyl}- N-pyridin-4-yl-benzamide [Compound 436],5 to 50 µM,0.5 to 5 µM,–,–,–
4-{1-Amino-2-[(3-methyl- cyclohexanecarbonyl)-amino]-ethyl}- N-pyridin-4-yl-benzamide [Compound 45],–,–,–,–,IC50 (PKC epsilon; [2]): 0.5 to 5 µM; IC50 (human ROCKα/ROCKII mix; [2]): 0.5 to 5 µM
